ChEMBL document CHEMBL4732194, “Indolyl-α-keto-1,3,4-oxadiazoles: Synthesis, anti-cell proliferation activity, and inhibition of tubulin polymerization” (Bioorg Med Chem Lett, 2021)
Calls of active or inactive are those of the source. The rule behind the calls is not given here.

Tests used:
U-937 [1] = assay: Antiproliferative activity against human U-937 cells assessed as cell survival at 10 uM (reference value: 100 +/ 8.7 %); format: functional; settings: read-out: Activity
Jurkat [2] = assay: Antiproliferative activity against human Jurkat cells assessed as cell survival at 10 uM (reference value: 104.3 +/ 10.2 %); format: functional; settings: read-out: Activity
BT-474 [3] = assay: Antiproliferative activity against human BT-474 cells assessed as cell survival at 10 uM (reference value: 100 +/ 6.3 %); format: functional; settings: read-out: Activity
[4] = Antiproliferative activity against human SMS-SB cells assessed as cell survival at 10 uM (reference value: 100 +/ 6 %); format: functional; settings: read-out: Activity
[5] = Inhibition of porcine brain tubulin polymerization assessed as disruption of microtubule assembly measured after 1.5 hrs in presence of GTP by fluorescence based analysis; format: tissue-based, Sus scrofa
[6] = Inhibition of calf brain tubulin polymerization assessed as disruption of microtubule assembly measured after 20 mins in presence of GTP by turbidometric analysis; format: tissue-based, Bos taurus
MCF7 = assay: Antiproliferative activity against estrogen-sensitive human MCF7 cells assessed as cell growth inhibition measured after 4 days by crystal violet staining based assay; format: functional; settings: MCF7, 96 h
U-937 [7] = assay: Antiproliferative activity against human U-937 cells assessed as inhibition of cell proliferation; format: functional, cell-based
Jurkat [8] = assay: Antiproliferative activity against human Jurkat cells assessed as inhibition of cell proliferation; format: functional, cell-based
BT-474 [9] = assay: Antiproliferative activity against human BT-474 cells assessed as inhibition of cell proliferation; format: functional, cell-based
[10] = Antiproliferative activity against human SMS-SB cells assessed as inhibition of cell proliferation; format: functional, cell-based
Jurkat [11] = assay: Cytotoxicity against human Jurkat cells assessed as cell membrane damage by LDH assay; format: functional, cell-based
Jurkat [12] = assay: Induction of apoptotic cell death in human Jurkat cells assessed as activation of caspase 3/7 at 3 uM by fluorescence assay relative to control; format: functional
Tubulin (Homo sapiens) = Tubulin (Homo sapiens) (UniProt P68371+Q9H4B7+P0DPH7+P68366+Q13509+Q71U36+P04350+Q3ZCM7+P07437+P68363+Q9BQE3+Q6PEY2+Q13885+Q9BVA1+Q9BUF5); assay: (§1) Inhibition of tubulin polymerization (unknown origin) assessed as inhibition of microtubule formation; format: protein-complex assay
Tubulin = assay: as §1; format: protein-complex assay, Homo sapiens
Jurkat [13] = assay: Induction of apoptotic cell death in human Jurkat cells assessed as activation of caspase 3/7 by fluorescence assay relative to control; format: functional

Compound	viability at 10 µM (U-937 [1]) [%]	viability at 10 µM (Jurkat [2]) [%]	viability at 10 µM (BT-474 [3]) [%]	viability at 10 µM [4] [%]	also measured
COc1ccc(C(=O)c2nnc(-c3c[nH]c4ccccc34)o2)cc1	108	99.6	88.4	96.2	
COc1ccc(C(=O)c2nnc(-c3c[nH]c4cc(F)ccc34)o2)cc1	108	86.4	72.6	101	
O=C(Nc1ccncc1)C(=O)c1cn(Cc2ccc(Cl)cc2)c2ccccc12 [INDIBULIN]	27.1	31.6	40.9	32.9	
COc1cc(/C=C/c2nnc(-c3cc(-c4ccc(Cl)cc4)n[nH]3)o2)cc(OC)c1OC					IC50 [5]: 1.3 µM
COc1cc(C(=O)c2nnc(-c3cc4ccccc4[nH]3)o2)cc(OC)c1OC	91.2	44.9	111	35.7	
COc1ccc(C(=O)c2nnc(-c3cc4ccccc4[nH]3)o2)cc1	84.1	75.1	56.1	79.9	
COc1cc(C(=O)c2nnc(-c3cn(Cc4ccc(Cl)cc4)c4ccccc34)o2)cc(OC)c1OC	86	80.6	68.5	96.2	
COc1ccc(-c2[nH]c3cc(OC)ccc3c2C=O)cc1					IC50 [6]: 1.5 µM; IC50 (MCF7): 0.035 µM
COc1ccc2[nH]cc(-c3nnc(C(=O)c4cc(OC)c(OC)c(OC)c4)o3)c2c1	85.5	88.9	54	74.3	
COc1cc(C(=O)c2nnc(-c3c[nH]c4ccccc34)o2)cc(OC)c1OC	27.5	35.2	41.1	11.6	IC50 (U-937 [7]): 7.1 µM; IC50 (Jurkat [8]): 3.1 µM; IC50 (BT-474 [9]): 4.1 µM; IC50 [10]: 0.8 µM; Activity (Jurkat [11]): inactive; fold change (FC) (Jurkat [12]): 9; inhibition (Tubulin (Homo sapiens)): Dose-dependent effect; IC50 (Tubulin): 10.7 µM
COc1ccc(C(=O)c2nnc(-c3c[nH]c4ccc(Br)cc34)o2)cc1	105	88.8	65.8	94.8	
O=C(c1ccccc1)c1nnc(-c2c[nH]c3ccccc23)o1	98.7	82.1	59.3	87.6	
COc1cc(C(=O)c2nnc(-c3c[nH]c4ccc(Br)cc34)o2)cc(OC)c1OC	92.1	77.4	56.8	70.9	
COc1cccc2c1C(=O)c1c(O)c3c(c(O)c1C2=O)C[C@@](O)(C(=O)CO)C[C@@H]3O[C@H]1C[C@H](N)[C@H](O)[C@H](C)O1 [DOXORUBICIN]	22.9	30.1	31.8	15.1	fold change (FC) (Jurkat [13]): 8
COc1ccc(C(=O)c2nnc(-c3cc4ccccc4[nH]3)o2)cc1OC	75.2	67.4	67.4	76.1	
COc1ccc(C(=O)c2nnc(-c3c[nH]c4ccccc34)o2)cc1OC	90.3	92.5	70.2	93.5	
O=C(c1ccc(F)cc1)c1nnc(-c2c[nH]c3ccccc23)o1	95.3	90.9	62.3	76.8	
O=C(c1ccccc1)c1nnc(-c2cn(Cc3ccc(Cl)cc3)c3ccccc23)o1	85	82	68.9	87.9	
COc1ccc(C(=O)c2nnc(-c3c[nH]c4ccc(OC)cc34)o2)cc1	98.7	99.9	70.3	70.7	
Cc1ccc(C(=O)c2nnc(-c3c[nH]c4ccccc34)o2)cc1	102	78.9	67.9	66.8	
